Measurements: patent US20180344715A1, “WNT/BETA-CATENIN SIGNAL TRANSDUCTION INHIBITORS AND THEIR USE IN TREATMENT OR PREVENTION OF DISEASES AND CONDITIONS LINKED WITH SAID TRANSDUCTION” (BERGEN TEKNOLOGIOVERFORING AS, priority 2015, published 2018)

Tests used:
Wnt/β-catenin signaling = experiment: TOPFlash reporter assay in 293FT cells; format: cell-based, human; details: 1 μM 6BIO together with drug at indicated concentrations, 24 hours
Method: TOPFlash assay was performed in 96-well plate. For each well, 293T cells were transfected with 0.22 μg TOPFlash (or FOPFlash with mutant TCF binding sites) and 0.02 μg pRL-SV40P using lipofectamine 3000. For co-transfection with other plasmids, 0.1 μg additional DNA was used. […] The luciferase activity was measured 24 hours later by using Dual-Glo® Luciferase Assay System (Promega, E2940) according to the recommended protocol. The TOPFlash or FOPFlash activity was normalized to Renilla luciferase signals.
TOPFlash assay was performed as described above. Briefly, for each well of a 96-well plate 293FT cells were transfected with 0.22 μg TOPFlash (or FOPFlash with mutant TCF binding sites) and 0.02 μg pRL-SV40P using lipofectamine 3000. For co-transfection with other plasmids, 0.1 μg additional DNA was used. Four hours after transfection, 293FT cells were treated with DMSO, 1 μM 6B10 and 1 μM 6B10 together with pazopanib, orlistat and topotecan at varying concentrations for 24 hours. The luciferase activity was then measured using Dual-Glo® Luciferase Assay System (Promega, E2940) according to the recommended protocol. The TOPFlash or FOPFlash activity was normalized to Renilla luciferase signals.

GFP-SHPRH = target: T1, GFP-SHPRH (Homo sapiens, UniProt Q149N8); experiment: MST ligand-binding assay, GFP-SHPRH in SW480 cell lysates; details: 25° C., 4 replicates
T1 construct: expressed in transfected cells; host or cells: SW480
T1 sequence (Q149N8 whole entry): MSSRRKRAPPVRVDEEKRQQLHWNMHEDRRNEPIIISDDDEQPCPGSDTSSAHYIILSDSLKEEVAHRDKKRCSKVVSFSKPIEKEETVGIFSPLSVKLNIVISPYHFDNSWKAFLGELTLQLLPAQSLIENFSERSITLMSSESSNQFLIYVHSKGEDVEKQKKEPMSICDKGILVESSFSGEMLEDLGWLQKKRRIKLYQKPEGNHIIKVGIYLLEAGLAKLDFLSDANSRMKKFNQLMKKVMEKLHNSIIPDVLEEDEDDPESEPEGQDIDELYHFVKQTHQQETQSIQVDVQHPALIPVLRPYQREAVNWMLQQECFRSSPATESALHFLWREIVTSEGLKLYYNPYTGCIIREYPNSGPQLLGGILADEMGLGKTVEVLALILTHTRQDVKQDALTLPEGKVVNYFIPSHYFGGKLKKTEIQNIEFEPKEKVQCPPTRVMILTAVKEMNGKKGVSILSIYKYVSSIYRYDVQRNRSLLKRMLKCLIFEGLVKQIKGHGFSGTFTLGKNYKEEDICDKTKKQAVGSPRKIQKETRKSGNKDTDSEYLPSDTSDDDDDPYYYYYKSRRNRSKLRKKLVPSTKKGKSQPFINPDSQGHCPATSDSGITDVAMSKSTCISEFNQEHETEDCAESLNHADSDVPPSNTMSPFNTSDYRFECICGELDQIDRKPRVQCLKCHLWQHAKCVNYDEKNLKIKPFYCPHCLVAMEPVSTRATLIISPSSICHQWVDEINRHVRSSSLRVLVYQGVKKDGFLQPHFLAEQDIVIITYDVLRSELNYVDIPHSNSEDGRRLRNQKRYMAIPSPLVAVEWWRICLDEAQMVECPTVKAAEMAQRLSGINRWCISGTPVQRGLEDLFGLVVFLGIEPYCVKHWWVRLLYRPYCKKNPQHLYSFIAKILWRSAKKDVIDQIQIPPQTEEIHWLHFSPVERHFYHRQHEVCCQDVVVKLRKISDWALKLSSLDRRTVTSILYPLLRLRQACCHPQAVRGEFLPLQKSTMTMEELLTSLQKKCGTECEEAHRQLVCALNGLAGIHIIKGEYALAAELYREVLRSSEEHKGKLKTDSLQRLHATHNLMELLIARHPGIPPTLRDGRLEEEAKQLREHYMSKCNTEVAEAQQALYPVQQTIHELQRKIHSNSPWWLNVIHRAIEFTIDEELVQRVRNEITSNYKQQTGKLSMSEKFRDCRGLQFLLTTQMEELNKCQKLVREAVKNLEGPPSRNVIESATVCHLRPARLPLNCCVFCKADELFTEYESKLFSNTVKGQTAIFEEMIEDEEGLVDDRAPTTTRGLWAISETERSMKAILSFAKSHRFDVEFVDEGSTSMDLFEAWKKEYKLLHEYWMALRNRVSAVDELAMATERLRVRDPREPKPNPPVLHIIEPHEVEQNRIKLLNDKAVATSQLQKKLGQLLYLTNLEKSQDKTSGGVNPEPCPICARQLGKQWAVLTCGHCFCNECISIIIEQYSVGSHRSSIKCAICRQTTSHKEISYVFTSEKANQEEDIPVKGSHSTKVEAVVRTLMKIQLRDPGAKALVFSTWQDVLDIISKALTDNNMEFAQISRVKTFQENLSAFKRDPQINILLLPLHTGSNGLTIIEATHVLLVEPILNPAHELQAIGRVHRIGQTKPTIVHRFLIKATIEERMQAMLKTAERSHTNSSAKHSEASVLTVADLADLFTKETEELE
Method: Ten million SW480 cells overexpressing GFP-tagged SHPRH or free GFP were lysed in 1 mL radioimmunoprecipitation assay (RIPA) buffer. Cell lysates were diluted in buffer A [50 mM Hepes buffer (pH 7.5), 5 mM DTT, 10 mM CaCl2), 50 mM NaCl, and 0.05% Tween-20] to a final concentration at which the fluorescent signals of the GFP proteins were similar and well above the detection limit of the Monolith NT.115 instrument (NanoTemper Technologies GmbH). Ten microliters of each receptor were mixed with 10 μL of the ligand at various concentrations from 100 μM to 3.05 nM. Specifically, the ligand (4 mM in 100% DMSO) was diluted 1:20 to a final concentration of 200 μM in buffer A (giving 5% DMSO). Ten microliters of the 200 μM ligand solution was further serially diluted 1:1 in 10 μL of buffer A supplemented with 5% DMSO to make a 16-sample dilution series down to 6.1 nM. Ten microliters of the cell lysate were added to 10 μL of each ligand solution. […] The fluorescence signal during the thermophoresis was monitored for 30 s, and the change in fluorescence was analyzed as thermophoresis with T-jump. The Kd was calculated by fitting a standard binding curve to the average of four independent dilution series.

[1] = system: Wnt signals (TCF-GFP reporter); experiment: TCF-GFP expression assay in transgenic zebrafish embryos; format: in vivo; details: embryos treated for 2 days
Method: Transgenic zebrafish harboring Tcf/Lef-miniP:dGFP reporter (line isi04) was obtained from National BioResource Project Zebrafish, Japan. Fish were kept under standard conditions and treated humanely in accordance with approved Institutional Animal Care and Use Committee of University of Bergen. For embryo experiments, embryos at 6 hpf (hours post fertilization) were cultured in 6-well plates (20 embryos per well) at 28° C. Embryos were treated with indicated chemicals and water was replenished daily. […] For TCF-GFP expression assay, embryos at 3 dpf were examined under fluorescence microscope. In both assays embryos that died during treatment were excluded from assessment.

SW480-7TGC cells = experiment: Flow cytometry of SW480-7TGC cells with Hoechst33342; format: cell-based; details: 24 hours
Method: To establish stable cell lines containing Wnt reporters, lentiviral vector 7TGC or 7TC together with packaging plasmids pMD2.G and pCMVR8.74 were co-transfected into 293FT cells with lipofectamine 3000. After 16 hours, culture medium was replaced with medium for cells of interest. One day later, the culture medium was filtered through a 0.45 μm filter and incubated with cells for 24 hours. The transduced cells were assessed by fluorescence microscopy and fluorescence-activated cell sorting (FACS Aria, BD Biosciences).

HCT116 cells = experiment: Soft agar colony-formation assay, HCT116; format: cell-based; details: 10 days
Method: The soft agar colony-formation assay was performed using the CellTransformation Assays kit (catalog no. CBA-130; Cell Biolabs, Inc.) according to the recommended protocol. […] Medium containing drugs was replaced every 3 d. For the clonogenic assay, positively transfected cells (wild-type and mutant GFP-SHPRH and control GFP) were enriched by FACS and were seeded in six-well plates at a density of 3,000 cells per well. Medium was changed every 3 d. On the last day colony growth was quantified by crystal violet staining and measurement of OD at 590 nm.

SHPRH [2] = target: T2, SHPRH (Homo sapiens, UniProt Q149N8); experiment: Cellular thermal shift assay (CETSA), SHPRH; format: binding; details: SW480, 10 μM
T2 construct: endogenous in cells; host or cells: SW480
T2 sequence (Q149N8 whole entry): as above
Method: CETSA in intact cells was performed according to the protocol previously described (Martinez Molina, D. et al., 2013, Science 341, 84-87). Briefly, SW480 cells were seeded equally in 2 T75 flasks and allowed to reach 80% confluence one day after. […] After trypsinization and PBS wash, cells were resuspended in 450 μl PBS containing freshly added protease inhibitors and equally divided between 7 tubes. Cells in each tube were heated at indicated temperatures for 3 minutes and kept at room temperature for 3 minutes. Heated cells were lysed by 3 cycles of freezing in liquid nitrogen (1 minute) and thawing in room temperature water (1 minute). The cell lysates were centrifuged at 20,000 g for 20 minutes at 4° C. The soluble fractions were isolated for Western blotting analysis.

SHPRH [3] = target: T2, SHPRH; experiment: SHPRH stability and ubiquitination in SW480 cells (cycloheximide, MG132); format: cell-based; details: SW480, 5 μM
Description: 2D-DIGE images of the DARTS samples. […] Location of β-catenin binding motifs of indicated genes (left) and agarose gel analysis of ChIP-PCR reactions with indicated antibodies (right). d. Western blots of the CoIP samples of SW480 cells using indicated antibodies. e. […] WT, wild type; FL, full length. g. Overexpression of SHPRH in SW480 cells increases the ubiquitination level of β-catenin. h. […] Summary of the mechanisms by which axitinib blocks Wnt/β-catenin signaling.
Culture cells were lysed in RIPA buffer (50 mM Tris-HCl, pH 7.4, 150 mM NaCl, 1% NP-40, 0.5% sodium deoxycholate, 0.1% SDS, 1 mM EDTA) containing freshly added protease inhibitors (Roche, 11836153001). Protein lysates were resolved in Novex 10% BisTris MiniGels (Life technologies, NP0303BOX) and transferred onto PVDF membranes with Pierce 1-Step Transfer Buffer (Thermo Fisher Scientific, 84731). […] Proteins were visualized and captured by a ChemiDOC XRS system and Quantity One software (Bio-Rad Laboratories).
Cells were harvested and re-suspended with 100 μl ice cold TBS (50 mM Tris-HCL pH 8.0, 150 mM NaCl) containing 2 μM N-Ethylmaleimide crystalline that was supplemented to all the following buffers. […] Following addition of 80 μl 2% SDS sample buffer containing 10 mM DTT (Sigma, D9779), the beads were boiled at 98° C. for 5 minutes and collected with Magnet, the supernatant was analyzed by Western blotting.

transgenic zebrafish = experiment: Tailfin regeneration assay in adult TCF-GFP transgenic zebrafish; details: 5 μM

In the case of `CNC(=O)c1ccccc1Sc1ccc2c(/C=C/c3ccccn3)n[nH]c2c1` [axitinib, N-Methyl-2-[[3-[(E)-2-pyridin-2-ylethenyl]-1H-indazol-6-yl]sulfanyl]benzamide], the “TOPFlash activity normalized to Renilla luciferase activity” value (Wnt/β-catenin signaling) is reported as “dose dependently inhibits”, the Kd (GFP-SHPRH) is reported as 10.4 ± 3.3 µM and the “TCF-GFP expression in the midbrain/hindbrain boundary and fin mesenchyme” value [1] is reported as “decreased”. For the same molecule, the “TCF-GFP^low cells” value (SW480-7TGC cells) was “increased”, the “apoptosis in TCF-GFP^low cells” value (SW480-7TGC cells; Hoechst33342) was “induced apoptosis” and the colony growth (HCT116 cells) was “strongly and dose-dependently inhibited”. For the same molecule, the “direct binding in intact living cells” value (SHPRH [2]) was “confirmed”, the “stability of SHPRH” value (SHPRH [3]; 6 hours, with cycloheximide) was “increased” and the “ubiquitination level of SHPRH” value (SHPRH [3]; MG132, 6 hours) was “decreased”. For the same molecule, the “tailfin regrowth and TCF-GFP activation” value (transgenic zebrafish; 6 consecutive days) was “completely inhibited” and the “intestine: crypt-villus architecture and incorporation of BrdU” value (transgenic zebrafish; 6 days) was “no significant change”.
